Key:
Format in all cases: in vivo, human
[1] = tested on: bacteria adherent to gingival epithelial cells; assay: Treatment of gingival infection: microbial adherence to gingival epithelial cells (Giemsa-stained gingival scrapings); conditions: for Gingival epithelial cells with 0 Bacteria / Gingival epithelial cells with 1-10 Bacteria / Gingival epithelial cells with 10-100 Bacteria / Gingival epithelial cells with Contiguous lawn: powder on gums twice daily
Excerpt: In this example isoleucine was applied as a pure crystalline powder directly to the gums. The individuals were normal human volunteers. Each individual had clinically evident low grade gingivitis, as determined by the puffiness of the gingival margin and a history of some bleeding during normal dental brushing. Oral health care comprised twice daily flossing and dental brushing with a non-medicated toothpaste. No oral antiseptic was used. The individuals were not taking antibiotics. Isoleucine was applied by application of powder on the fingertip to the outer and inner gum margins of the upper and lower jaws. The entirety of the gingival surface was covered manually, twice daily. The AM application was performed following breakfast, immediately after brushing. The PM application was conducted prior to retiring for sleep.
Gingival surface was gently scrapped with the side of a rectangular glass cover slip and the material described was applied to a glass microscope slide and air-dried. The slide was stained in concentrated Giemsa stain for 1 min, then destained in water for 5 min. The slide was then air-dried and mounted with a cover slip cemented with Permount. Slides were examined by light microscopy at 100× and 400× magnification. Under these staining conditions bacteria were clearly visualized as dark blue particles against the pale gray epithelial cells.
Gingival scrapings were taken in the morning prior to normal oral care and prior to eating. Prior to scraping, the subject rinsed the mouth with a cup of water to wash free particulate matter, unattached cells, and bacteria.
Scrapings were taken 3 days and 1 day prior to isoleucine administration and 1, 3, 5, and 7 days during isoleucine application. […] The bacteria adherent were represented by several different species, distinguished by morphology. […] At least 200 bacteria were counted on the average on each cell.

[2] = tested on: diarrheal agent (nature not known); assay: Amelioration of infectious diarrhea by oral isoleucine solution
Procedure: In this example isoleucine was administered to treat infectious diarrhea. In this example three individuals were naturally innoculated by a common agent. The nature of the diarrheal agent is not known. The duration of diarrhea was consistent with an infectious etiology. Isoleucine was utilized based on the hypothesis that reduction in microbial adherence would likely limit the continued re-infection of the gut wall by the agent, and/or prevent attachment of opportunistic commensal organisms.
Three members of a family traveling in the Middle East (MZ, BZ, JZ) contracted watery diarrhea, associated with food intolerance, following a meal they shared at a restaurant. Each individual had been in excellent health without prior history of GI complaints. All were unmedicated, including aspirin or antihistanines. […] Diarrhea was watery, without gross blood, minimal mucous, slight fever with chills, no nausea, and persistence of hunger. Peristalsis was vigorous and increased by ingestion of food. Each individual was placed on a diet restricted to clear liquids (juices and soda), digestible carbohydrates (bread, rice, candy). No medications were administered.
Six days after ingestion of the diarrheal agent, one individual was begun on oral isoleucine (ILE) therapy, while the other two continued on restricted diets. ILE (#E-2025 Bachem, lot 511191) was dissolved in distilled water to 0.001%. One glass of ILE solution (about 250 ml) was consumed every several hours. A total of about 4 liters was consumed over 3½ days. A reduction in stool frequency was noted within 12 hours of initiation of ILE therapy.
BZ and JZ both continued to experience diarrhea unabated until about 11 days after ingestion of the infectious agent, with stool frequency decreasing noticeably. […] Thus, isoleucine therapy was associated with a shortening of the duration of diarrhea by approximately three days.

[3] = Amelioration of irritable bowel syndrome by isoleucine in yogurt
Procedure: In this example isoleucine was administered to individuals who experienced irritable bowel syndrome (IBS). IBS is a loosely defined condition associated with bowel discomfort including abdominal bloating, nausea, pain and a sense of incomplete bowel movements. The etiology underlying IBS is unknown. It is our hypothesis that IBS results from adherence of certain “pathogenic” commensal organisms to the epithelial lining of certain segments of the GI tract, resulting in disturbance of normal host-bacteria relationships. […] Two women, each in their mid-50's, presented with a history of IBS of over 20 years, in each case. In each, IBS was characterized by a sense of bloating experienced after eating cooked or raw vegetables, fruits, and meat. Each individual experienced urgency to move her bowels several times a day to an extent that often awakened the individuals from sleep. Bloating was accompanied by abdominal discomfort, described as mild cramps. Individuals felt “gassy” most of the day. Each individual was given isoleucine, 1 tsp, twice a day, each dose mixed in ½ cup of yogurt. The yogurt was included to promote reinoculation of the GI tract with probiotic “good” bacteria. In each case, it was known from previous experience that yogurt itself had little effect on the IBS experienced by these individuals. Within 2 day so isoleucine administration, bloating, urgency to defecate, and gassiness had disappeared. Both individuals described the state of their bowel function as “normal”, for the first time in 20 years. […] Each was then withdrawn from isoleucine, and provided yogurt unsupplemented with isoleucine. Within about 2 days both women recorded a reappearance of the former symptoms of IBS.

bacterial vaginosis = assay: Amelioration of bacterial vaginosis by local isoleucine powder
Procedure: In this example isoleucine was administered locally to the vagina to treat the symptoms of bacterial vaginosis. By inhibiting the adherence of bacteria to the wall of the vagina, microbial growth, inflammation, and associated signs of malodorous discharge and symptoms such as pruritis can be treated. A person, with a normal menstrual cycle and in excellent health, experienced vaginal irritation and malodorous discharge associated with their cycle, generally beginning several days prior to the onset of their period. Isoleucine was self-administered as a powder locally within the vaginal cavity digitally, twice a day. Within 2 days symptoms of vaginosis disappeared. Isoleucine therapy was continued for several days following termination of menstrual discharge, and then stopped. […] Isoleucine was again administered during the following months, cycled as described initially.

[4] = Day 1 of isoleucine application
[5] = Day 3 of isoleucine application
[6] = Day 7 of isoleucine application
[7] = 3rd day of ILE therapy, individual

## CC[C@H](C)[C@H](N)C(=O)O [isoleucine]
[1]; [4]
  Gingival epithelial cells with 0 Bacteria: 0 % cells
  Gingival epithelial cells with 1-10 Bacteria: 10 % cells
  Gingival epithelial cells with 10-100 Bacteria: 10 % cells
  Gingival epithelial cells with Contiguous lawn: 80 % cells
[1]; Day 3
  Adherent bacteria in gingival smear: dramatic reduction
  Cells fully covered with bacteria, of 100 cells examined: 40
  Microcolonies (contiguous groupings of greater than 4 organisms) on cells: Few
  Neutrophils in gingival smear (sign of inflammation): No neutrophils were evident
  Total adherent bacteria per cell (most cells): < 100
[1]; [5]
  Gingival epithelial cells with 0 Bacteria: 15 % cells
  Gingival epithelial cells with 1-10 Bacteria: 15 % cells
  Gingival epithelial cells with 10-100 Bacteria: 30 % cells
  Gingival epithelial cells with Contiguous lawn: 40 % cells
[1]; Day 7
  Cells completely free of bacteria: 80%
  Cells fully covered with adherent bacteria: 5%
  Cells with 1 to 10 bacteria/cell: 15%
[1]; Day 7, in the AM, prior to oral hygiene
  Breath as described by an examiner: free of odor
[1]; [6]
  Gingival epithelial cells with 0 Bacteria: 80 % cells
  Gingival epithelial cells with 1-10 Bacteria: 15 % cells
  Gingival epithelial cells with 10-100 Bacteria: 0 % cells
  Gingival epithelial cells with Contiguous lawn: 5 % cells
[1]; gingival smear, Day 1 following initiation
  Change in the number of epithelial cells covered with a dense coat of bacteria: little change
[2]; [7]
  Food tolerance: cheese and chicken tolerated
  Stools passed: no stools were passed
[2]; MZ on isoleucine versus BZ and JZ on restricted diet only
  Shortening of the duration of diarrhea: approximately three
[2]; individual MZ
  Day following ILE treatment by which a normal stool was passed and the diarrheal episode had passed: ≤ 4 days
[2]; one individual, 0.001% ILE in distilled water, about 250 ml every several hours, begun six days after ingestion of agent
  Time to reduction in stool frequency after initiation of ILE therapy: ≤ 12 h
[3]; maintained on isoleucine for 1 month
  Response during maintenance: consistent response
[3]; on isoleucine 1 tsp twice a day in yogurt
  State of bowel function as described by the individuals: normal
[3]; yogurt unsupplemented with isoleucine
  Time to reappearance of former symptoms of IBS after withdrawal from isoleucine: ≤ 2 days
Bacterial vaginosis; after therapy continued several days past menstrual discharge
  Status following cessation of isoleucine administration: remained symptom free
Bacterial vaginosis; repeated cycled administration in following months, based on symptoms and signs
  Overall outcome of chronic vaginosis: effectively cured

From patent publication US7470434B1, “Methods and compositions for blocking microbial adherence to eukaryotic cells” (priority 2007, dated 2008)
